The record followed here is paper PMC3910101 (International journal of cancer. Journal international du …, 2012).

This assay has as its target Hsp90. In words: SPR. Format: binding, Homo sapiens.

Usually Kd stands for the equilibrium constant for the complex coming apart. Low values mean a tighter complex, high ones a looser complex. The molecule `CC(C)=CCCC1(C)C=Cc2c(c(C)cc3c2[nH]c2cc(O)ccc23)O1` (stereo not shown) [mahanine] returned a Kd of 4.99 µM.
